Data as given in US20080318227A1, “Intermediates and enzymes of the non-mevalonate isoprenoid pathway” (priority 2001, published 2008).

Legend:
IspG (GcpE) = biological target: T1, IspG (GcpE) (Escherichia coli, UniProt P62620); test: Screening of IspG (GcpE) enzyme activity, crude cell extract of XL1-pACYClytBgcpE, radio-HPLC; type: biochemical; details: after 10 minutes of incubation at 37° C., NADH, CoCl2, pamidronate
T1 construct: 100 μl crude cell extract of XL1-pACYClytBgcpE; made in house; host or cells: E. coli XL1-Blue harbouring pACYClytBgcpE (crude cell extract)
Protocol: 0.2 g cells of XL1-pACYClytBgcpE are suspended in 1 ml 50 mM Tris hydrochloride, pH 7.4 and 2 mM DTT, cooled on ice and sonified 3×7 sec with a Branson Sonifier 250 (Branson SONIC Power Company) set to 80% duty cycle output, control value of 4 output. The suspension is centrifuged at 14000 rpm for 15 minutes. The supernatant is used as crude cell extract in assays described as follows.
The assay mixture contains 100 mM Tris hydrochloride, pH 7.4, 1.2 mM dithiothreitol, 10 mM NaF, 1 mM CoCl2, 2 mM NADH, 20 mM (18 μCi mol^−1) [2-^14C[…]2C-methyl-erythritol 2,4-cyclodiphophate, 0.5 mM pamidronate and 100 μl crude cell extract of XL1-pACYClytBgcpE in a total volume of 150 μl. The mixture is incubated for 10 to 45 min at 37° C. and cooled on ice. 10 μl of 30% (g/v) trichloroacetic acid are added and the mixture is neutralized with 20 μl of 1 M NaOH.
The mixture is centrifuged at 14.000 rpm for 10 minutes. Aliquotes of 130 μl of the supernatant are analyzed by reversed-phase ion-pair HPLC using a column of Multospher 120 RP 18-AQ-5 (4.6×250 mm, CS-Chromatographie Service GmbH, Langerwehe, Germany). […] The effluent is monitored by a continuous-flow radio detector (Beta-RAM, Biostep GmbH, Jahnsdorf, Germany). […]

[1] = tested on: Capsicum annuum chromoplasts; test: Incorporation into the lipid soluble fraction of chromoplasts; type: biochemical; details: [2-14C] label, 8.8 nmol, 30° C. overnight
Protocol: Chromoplasts are isolated by a slight modification of a method described by Camara (Camara, 1985; Camara, 1993). Pericarp of red pepper (650 g) is homogenized at 4° C. in 600 ml of 50 mM Hepes, pH 8.0, containing 1 mM DTE, 1 mM EDTA and 0.4 M sucrose (buffer A). The suspension is filtered through four layers of nylon cloth (50 μm) and centrifuged (10 min, 4,500 rpm, GSA rotor) to obtain a pellet of crude chromoplasts which is homogenized in 200 ml of buffer A. The suspension is centrifuged (10 min, 4,500 rpm, GSA rotor). The pellet is homogenized and resuspended in 3 ml of 50 mM Hepes, pH 7.6, containing 1 mM DTE. The suspension is filtered through one layer of nylon cloth (50 μm).
Reaction mixtures contain 100 mM Hepes, pH 7.6, 2 mM MnCl2, 10 mM MgCl2, 5 mM NaF, 2 mM NADP^+, 1 mM NADPH, 6 mM ATP, 20 μM FAD and 2 mg of chromoplasts. 8.8 nmol of [2-^14C]2C-methyl-D-erythritol 2,4-cyclodiphosphate, [2-^14C]1-hydroxy-2-methyl-2-(E)-butenyl diphosphate or [2-^14C]isopentenyl diphosphate (specific […] 15.8 μCi/μmol) are added and the mixtures are incubated at 30° C. overnight. The reaction is terminated by methylene chloride extraction. The organic phase is concentrated under a stream of nitrogen. […] The chromatograms are monitored with a phosphor imager (Storm 860, Molecular dynamics, Sunnyvale, Calif., USA). […]

γδ T-cells = test: γδ T cell stimulation assay (PBMCs, FACS Vδ2 TCR/CD3 double staining); type: cell-based, human; details: for γδ T cell stimulation compared to IPP: at a concentration 200-fold lower than the concentration of the IPP sample; for % γδ T-cells: seven days
Protocol: PBMCs from healthy donors (donor A and donor B) are isolated from heparinized peripheral blood by density centrifugation over Ficoll-Hypaque (Amersham Pharmacia Biotech, Freiburg, Germany). […] Amounts of recombinant human IL-2 (kindly provided by Eurocetus, Amsterdam, The Netherlands) and substrates are varied from 1 to 10 U and 10 to 0.1 μM, respectively. 20 μM IPP (Echelon, Research Laboratories Inc., Salt Lake City, USA) serves as a positive control whereas medium alone serves as negative control. Incubation is done for seven days at 37° C. in the presence of 7% CO2. The harvested cells are double-stained with fluorescein isothiocyanate (FITC)-conjugated mouse anti-human monoclonal antibody Vδ2 TCR and phycoerythrin (PE)-conjugated monoclonal CD3 antibody. The cells are analyzed using a FACScan supported with Cellquest (Becton Dickinson, Heidelberg, Germany).
The substrates (E)-1-hydroxy-3-methyl-but-2-enyl 4-diphosphate (HMBPP) and 3-formyl-but-2-enyl 1-diphosphate (Aldehyde) were prepared synthetically as described above.

IspH (LytB) = biological target: T2, IspH (LytB) (Escherichia coli, UniProt P62623); test: Screening of IspH (LytB) activity, crude cell extract, radio-HPLC; type: biochemical
T2 construct: 20 μl of crude cell extract of M15-pMALlytB cells; made in house; host or cells: E. coli M15 harbouring pMALlytB (crude cell extract)

[2] = substrate 0.1 μM, IL-2 1 U, Donor A
[3] = substrate 0.1 μM, IL-2 1 U, Donor B
[4] = substrate 0.1 μM, IL-2 5 U, Donor A
[5] = substrate 0.1 μM, IL-2 5 U, Donor B
[6] = substrate 0.1 μM, IL-2 10 U, Donor A
[7] = substrate 0.1 μM, IL-2 10 U, Donor B
[8] = substrate 1 μM, IL-2 1 U, Donor A
[9] = substrate 1 μM, IL-2 1 U, Donor B
[10] = substrate 1 μM, IL-2 5 U, Donor A
[11] = substrate 1 μM, IL-2 5 U, Donor B
[12] = substrate 1 μM, IL-2 10 U, Donor A
[13] = substrate 1 μM, IL-2 10 U, Donor B
[14] = substrate 10 μM, IL-2 1 U, Donor A
[15] = substrate 10 μM, IL-2 1 U, Donor B
[16] = substrate 10 μM, IL-2 5 U, Donor A
[17] = substrate 10 μM, IL-2 5 U, Donor B
[18] = substrate 10 μM, IL-2 10 U, Donor A
[19] = substrate 10 μM, IL-2 10 U, Donor B

T2 sequence (P62623 whole entry): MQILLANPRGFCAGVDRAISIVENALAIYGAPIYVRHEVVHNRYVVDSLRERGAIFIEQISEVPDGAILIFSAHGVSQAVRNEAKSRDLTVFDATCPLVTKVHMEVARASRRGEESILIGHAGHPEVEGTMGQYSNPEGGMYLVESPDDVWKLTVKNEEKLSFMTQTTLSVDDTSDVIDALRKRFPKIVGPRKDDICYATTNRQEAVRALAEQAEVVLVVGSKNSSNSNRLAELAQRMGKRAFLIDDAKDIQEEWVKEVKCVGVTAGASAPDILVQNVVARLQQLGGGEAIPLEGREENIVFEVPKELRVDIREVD
T1 sequence (P62620 whole entry): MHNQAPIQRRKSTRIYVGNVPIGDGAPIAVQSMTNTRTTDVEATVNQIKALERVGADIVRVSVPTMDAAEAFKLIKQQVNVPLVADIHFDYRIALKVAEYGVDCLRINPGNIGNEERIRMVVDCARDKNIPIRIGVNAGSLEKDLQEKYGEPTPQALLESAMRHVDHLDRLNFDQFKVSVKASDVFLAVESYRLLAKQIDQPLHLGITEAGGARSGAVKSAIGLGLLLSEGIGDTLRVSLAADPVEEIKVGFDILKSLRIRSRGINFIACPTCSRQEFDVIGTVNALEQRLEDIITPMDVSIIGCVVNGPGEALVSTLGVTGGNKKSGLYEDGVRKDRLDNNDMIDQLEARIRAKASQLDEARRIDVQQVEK

Molecule	γδ T cell stimulation compared to IPP (γδ T-cells)	% γδ T-cells (γδ T-cells; [2])	% γδ T-cells (γδ T-cells; [3])	% γδ T-cells (γδ T-cells; [4])	% γδ T-cells (γδ T-cells; [5])	% γδ T-cells (γδ T-cells; [6])	% γδ T-cells (γδ T-cells; [7])	% γδ T-cells (γδ T-cells; [8])	% γδ T-cells (γδ T-cells; [9])	% γδ T-cells (γδ T-cells; [10])	% γδ T-cells (γδ T-cells; [11])	% γδ T-cells (γδ T-cells; [12])	% γδ T-cells (γδ T-cells; [13])	% γδ T-cells (γδ T-cells; [14])	% γδ T-cells (γδ T-cells; [15])	% γδ T-cells (γδ T-cells; [16])	% γδ T-cells (γδ T-cells; [17])	% γδ T-cells (γδ T-cells; [18])	% γδ T-cells (γδ T-cells; [19])	also measured
C[C@@]1(CO)OP(=O)(O)OP(=O)(O)OC[C@H]1O [2C-methyl-erythritol 2,4-cyclodiphophate, 2C-methyl-D-erythritol 2,4-cyclodiphosphate]	–	–	–	–	–	–	–	–	–	–	–	–	–	–	–	–	–	–	–	substrate converted into 1-hydroxy-2-methyl-2-(E)-butenyl-4-diphosphate and DMAPP/IPP (IspG (GcpE)): about 13%
C/C(=C\COP(=O)(O)OP(=O)(O)O)CO [HMBPP, (E)-1-hydroxy-3-methyl-but-2-enyl 4-diphosphate]	at least double stimulation compared to IPP	11.78%	32.21%	22.92%	44.69%	34.69%	36.33%	5.57%	35.34%	14.4%	54.12%	19.85%	55.90%	3.3%	31.42%	17.38%	63.48%	24.94%	63.34%	radioactivity diverted into geranylgeraniol, carotene, phytoene and phytofluene fractions [1]: efficiently diverted; HPLC peak of substrate; conversion into DMAPP and IPP (IspH (LytB); crude cell extract of E. coli M15-pMALlytB cells, 30 min at 37° C., NADH, FAD, pamidronate): completely diminished; conversion into DMAPP and IPP (IspH (LytB); crude cell extract of E. coli wild-type as protein source): No conversion
C=C(C)CCO[P@@](=O)(O)OP(=O)(O)O [IPP, isopentenyl diphosphate, reference compound]	–	1.3%	2.15%	1.3%	2.26%	1.01%	2.54%	1.56%	2.22%	1.59%	2.67%	1.71%	2.19%	–	–	–	–	–	–	% γδ T-cells (γδ T-cells; substrate 20 μM, IL-2 1 U, Donor A): 8.19%; % γδ T-cells (γδ T-cells; substrate 20 μM, IL-2 1 U, Donor B): 6.24%; % γδ T-cells (γδ T-cells; substrate 20 μM, IL-2 5 U, Donor A): 14.42%; % γδ T-cells (γδ T-cells; substrate 20 μM, IL-2 5 U, Donor B): 9.32%; % γδ T-cells (γδ T-cells; substrate 20 μM, IL-2 10 U, Donor A): 16.6%; % γδ T-cells (γδ T-cells; substrate 20 μM, IL-2 10 U, Donor B): 11.86%
(E)-3-formyl-but-2-enyl 1-diphosphate [Aldehyde]	at least double stimulation compared to IPP	10%	13.54%	19.77%	18.45%	21.93%	25.82%	15.91%	21.18%	40.13%	30.76%	48.28%	36.69%	12.19%	30.69%	34.69%	30.33%	38.99%	38.85%	–
